This is an account of results in patent US20240001012A1, “SOLUTIONS FOR […] OF A DRUG AD[…] […] AND DOSING ALGORITHM THEREFOR” (DREXEL UNIVERSITY, priority 2017, published 2024).

One data set has as its system Streptococcus pneumoniae. Nature of the data set: Follow-up cultures in patient 4 on vancomycin via CRRT. To be noted: vancomycin continued 2 days. In kind it is in vivo, human. The source says:
(§1) Only two patients, patients 4 and 9, had cultures that were positive for a gram-positive organism. […] Subsequent cultures obtained from the blood and the respiratory system were negative. The isolate of Streptococcus pneumoniae was penicillin sensitive, and the patient was changed to ampicillin for the remainder of the treatment course.

Data set [1] in a line: Inspection of CRRT solution(s) and circuit for precipitation and clotting after mixing vancomycin. To be noted: on mixing the vancomycin in the CRRT solution. From the text:
Upon initiation of CRRT, the CRRT circuit may be inspected and evaluated on an hourly basis according to current standards of care. A part of the hourly standard of care inspection may involve inspection of the CRRT solution for precipitation and crystallization. This assessment should continue for the period of time the patient is receiving CRRT and vancomycin or other antibiotics is mixed in the CRRT solution.
(§2) Prismaflex machine was initially primed with two 1-L bags of normal saline and 5,000 units of heparin. The machine was then primed with normal saline, 5% albumin, or a blood exchange (blood is transfused to the patient as the prime is wasted) depending on the percent extracorporeal volume of the patient with a dialysis solution utilizing HF1000, AN69 dialysis filters. Commercially available dialysate and replacement solutions were used for all CRRT patients. The CRRT circuit and solutions were inspected and observed for adverse events, such as specifically for precipitation and clotting. The CRRT solution(s) and circuit were visually inspected after addition of the CRRT circuit prior to the final connection to the patient.

For data set [2] the following is noted: escalation in CRRT intensity from hemofiltration to hemodiafiltration; Joy et al. 1998; cited from earlier work.
Data set [3] deals with methicillin-sensitive Staphylococcus aureus. Nature of the data set: Follow-up cultures in patient 9 on vancomycin via CRRT. The data set is classed as in vivo, human. To be noted: day 6 of vancomycin therapy, blood culture also negative.
From the text: as §1

Data set [4] is described as follows: Serum vancomycin plateau level in patients receiving continuous infusion vancomycin mixed in the CRRT solution. The data set is classed as in vivo, human. The method, then: According to embodiments disclosed herein, drug concentrations in the solution(s) are adjusted in vitro based on an initial serum plateau level, and subsequent levels are thereafter obtained based on these changes. […] See step 70.
In this study, CRRT was performed using a Prismaflex System machine (Gambro, Lakewood, CO). The mode of dialysis, continuous venovenous hemofiltration or hemodiafiltration was dictated by an attending nephrologist prescribing the dialysis. The
as §2
The median eGFR on ICU admission was 39.9 mL/min/1.73 m 2 (25th to 75th IQR, 25.8-53.4 mL/min/1.73 m 2) compared with a median eGFR of 26.7 mL/min/1.73 m 2 (25th to 75th IQR, 18.8-42.7 mL/min/1.73 m 2) with the initiation of CRRT.

The nature of data set [5]: Stability of vancomycin with components of the CRRT solution. In kind it is physicochemical. To be noted: in CRRT solution. From the text:
The CRRT or like solution may be prepared at the time it is needed following current standard operating procedures for sterile product compounding or as discussed below in greater detail. The amount of vancomycin, for instance, to be added to the solution is described below in greater detail. Accordingly, this mixed solution is provided for being infused for the duration it is prescribed for CRRT. […] Other drugs may be stable for less or more time.

Regarding `CN[C@H](CC(C)C)C(=O)N[C@H]1C(=O)N[C@@H](CC(N)=O)C(=O)N[C@H]2C(=O)N[C@H]3C(=O)N[C@H](C(=O)N[C@H](C(=O)O)c4cc(O)cc(O)c4-c4cc3ccc4O)[C@H](O)c3ccc(c(Cl)c3)Oc3cc2cc(c3O[C@@H]2O[C@H](CO)[C@@H](O)[C@H](O)[C@H]2O[C@H]2C[C@](C)(N)[C@H](O)[C@H](C)O2)Oc2ccc(cc2Cl)[C@H]1O` [Vancomycin, vancomycin], the “subsequent cultures from blood and respiratory system” value in the data set with Streptococcus pneumoniae is recorded as “negative”. The “adverse events regarding precipitation of vancomycin with CRRT solution(s) or circuit” value in data set [1] is listed as “no adverse events were observed”. Also, the “increase in vancomycin clearance” value in data set [2] was “greater than or equal to 30%”. Besides, the repeat respiratory culture entry in data set [3] is on record as “negative”. The “median (25th to 75th IQR) vancomycin serum plateau concentration” value in data set [4] (11 patients, median solution concentration 25 mg/L) was 21.8 (20.9-25). Also, in data set [4] (all levels of 11 patients), the “Vancomycin Level, IQR, 25” value is 20.9 µg/mL; the “Vancomycin Level, IQR, 75” value was 25 µg/mL; the “Vancomycin Level, Min” value came out at 12.9 µg/mL. Besides, the “Vancomycin Level, Mean” value in data set [4] (all levels of 11 patients, mean CRRT solution concentration 26.5 μg/mL) worked out at 22.3 µg/mL. The “Vancomycin Level, Median” value in data set [4] (all levels of 11 patients, median CRRT solution concentration 25 μg/mL) amounted to 21.8 µg/mL. Moreover, the “attainment of therapeutic vancomycin serum plateau levels” value in data set [4] (all patients, regardless of CRRT modality, dose and flow rate) is recorded as “all patients achieved therapeutic vancomycin serum plateau levels”. In addition, the concentration at 8 h in data set [4] (human, serum, other: continuous infusion mixed in the CRRT solution, the one patient below 15 mg/L at 8 hours) turned out to be 12900 ng/mL. In data set [4] (same patient, within 16 hours of starting CRRT), the “therapeutic serum level after adjustment of the CRRT solution concentration” value turned out to be 23.5 mg/L. Moreover, in data set [4] (ten of eleven patients, within 8 hours of starting mixing vancomycin into the CRRT solution, target 15-30 mg/L), the “patients achieving a therapeutic serum vancomycin level within 8 hours” value was 91%. The “stable with components of the CRRT solution” value in data set [5] was “at least 96 hours”.
